Results on two compounds are retold here after patent US20080260653A1, “Transdermal Delivery Systems and Transdermal Chelation Preparations” (priority 2004, published 2008).

The nature of the series: Thermal stability and activity test of chelators (copper oxide removal test). The class given is physicochemical. To be noted: 143 degrees F. for 5 minutes. As for the experimental part:
A fresh copper surface is prepared. The surface is gently heat oxidized. Next, the chelation quality was determined. About 0.0001 grams per drop (or 0.0029 g/ml) chelator effectively removed all the oxide form 1 cm sq in two minutes at a temperature of 98-99 degrees F. Then, the solution was diluted at 10% intervals to determine the point where it would not remove the oxide. There was a step wise decrease in chelation effect across the Cu test sample plate. A standard of chelation was graphed, see FIGS. 1 and 2.
A similar test is used for thermal stability and activity. […] Also, the identical test is used to determine batch activity. A crude field test is to put the chelator on a penny and heat to 98 degrees.

`O=S(=O)([O-])CC(S)CS.[Na+]` (centres unmarked) [DMPS, 2,3-dimercaptopropanesulphonate sodium]: the “inactive (loss of chelator activity on heating)” value is 100%.

As to `O=C(O)CN(CCN(CC(=O)O)CC(=O)O)CC(=O)O` [EDTA, ethylenediamine-N,N,N′,N′-tetraacetic acid], the “inactive (loss of chelator activity on heating)” value is reported as 100%.
